The supplement of paper PMC10307832

Assays:
Test in all cases: relative viability (nuclei count vs DMSO), 5 days (fraction); higher = more cells survive
Ibrutinib + Lapatinib = compound: C=CC(=O)N1CCC[C@@H](n2nc(-c3ccc(Oc4ccccc4)cc3)c3c(N)ncnc32)C1 [Ibrutinib] + CS(=O)(=O)CCNCc1ccc(-c2ccc3ncnc(Nc4ccc(OCc5cccc(F)c5)c(Cl)c4)c3c2)o1 [Lapatinib] (partner 2 µM)
Method in brief: (§1)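 Medians of duplicate plates are given as relative viability. That measure is the nuclei count in treated wells divided by the count in vehicle wells. Counts were taken on 4× images of lung cancer cell lines in 1536-well plates, 5 days after pin-tool dosing the day after seeding with one drug alone or a fixed anchor-drug dose plus five library-drug doses (not always all listed) in √10 steps.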

PAC-1 + Vorinostat = compound: C=CCc1cccc(/C=N/NC(=O)CN2CCN(Cc3ccccc3)CC2)c1O [PAC-1] + O=C(CCCCCCC(=O)Nc1ccccc1)NO [Vorinostat] (partner 1 µM)
Method in brief: as §1

BMX-IN-1 + Decitabine = compound: C=CC(=O)Nc1cc(-n2c(=O)ccc3cnc4ccc(-c5ccc(NS(C)(=O)=O)cc5)cc4c32)ccc1C [BMX-IN-1] + Nc1ncn([C@H]2C[C@H](O)[C@@H](CO)O2)c(=O)n1 [Decitabine] (partner 2 µM)
Method in brief: as §1

BMX-IN-1 + Tozasertib = compound: C=CC(=O)Nc1cc(-n2c(=O)ccc3cnc4ccc(-c5ccc(NS(C)(=O)=O)cc5)cc4c32)ccc1C [BMX-IN-1] + Cc1cc(Nc2cc(N3CCN(C)CC3)nc(Sc3ccc(NC(=O)C4CC4)cc3)n2)n[nH]1 [Tozasertib] (partner 0.1 µM)
Method in brief: as §1

Cell Line	relative viability (Ibrutinib + Lapatinib; first compound 0.005 µM)	relative viability (Ibrutinib + Lapatinib; first compound 0.01581 µM)	relative viability (Ibrutinib + Lapatinib; first compound 0.05 µM)	relative viability (Ibrutinib + Lapatinib; first compound 0.1581 µM)	relative viability (Ibrutinib + Lapatinib; first compound 0.5 µM)	relative viability (PAC-1 + Vorinostat; first compound 0.02 µM)	relative viability (PAC-1 + Vorinostat; first compound 0.06325 µM)	relative viability (PAC-1 + Vorinostat; first compound 0.2 µM)	relative viability (PAC-1 + Vorinostat; first compound 2 µM)	relative viability (BMX-IN-1 + Decitabine; first compound 0.02 µM)	relative viability (BMX-IN-1 + Decitabine; first compound 0.2 µM)	relative viability (BMX-IN-1 + Decitabine; first compound 0.6325 µM)	relative viability (BMX-IN-1 + Decitabine; first compound 2 µM)	relative viability (BMX-IN-1 + Tozasertib; first compound 0.02 µM)	relative viability (BMX-IN-1 + Tozasertib; first compound 0.2 µM)	relative viability (BMX-IN-1 + Tozasertib; first compound 0.6325 µM)	relative viability (BMX-IN-1 + Tozasertib; first compound 2 µM)
201T	1.04	0.983	1.08	0.968	1.02	0.957	0.949	1.09	1.05	0.819	0.847	0.864	0.918	1.17	0.997	0.953	0.896
A549	0.931	0.916	1.05	1.08	1.02	–	–	–	–	0.289	0.115	0.284	0.293	–	–	–	–
A-427	1.01	1.01	1.06	0.982	1.01	0.891	0.889	0.86	0.8	0.544	0.554	0.559	0.551	0.183	0.182	0.21	0.2
ABC-1	1.14	1.19	1.29	1.19	1.26	1.06	1	1.44	1.09	1.22	1.31	1.15	1.16	0.199	0.162	0.145	0.172
BEN	–	0.791	0.519	0.526	0.551	0.558	0.58	0.552	0.601	0.7	0.755	0.792	0.674	0.58	0.498	0.52	0.507
CAL-12T	0.615	0.67	0.711	0.647	0.683	0.89	0.793	0.688	0.712	–	–	–	–	0.345	0.375	0.344	0.297
COR-L23	1.24	0.948	–	0.964	0.982	0.415	0.429	–	0.364	0.467	0.45	0.484	0.438	0.186	0.312	0.213	0.212
COR-L 105	0.36	0.402	0.368	0.314	0.337	1.08	0.817	0.817	0.801	0.563	0.671	0.654	0.672	0.388	0.318	0.76	0.358
Calu-6	1.07	1.04	0.98	1.13	–	–	–	–	–	–	–	–	–	–	–	–	–
ChaGo-K-1	–	–	–	–	–	0.754	0.773	0.65	0.829	0.512	0.549	0.551	0.519	0.216	0.227	0.218	0.237
EBC-1	0.199	0.197	0.219	0.186	0.238	–	–	–	–	–	–	–	–	–	–	–	–
EKVX	0.178	0.215	0.216	0.191	0.179	0.768	0.776	0.793	0.69	0.333	0.281	0.617	0.381	0.519	0.468	0.445	0.383
EMC-BAC-2	0.827	0.864	0.858	0.909	0.899	0.414	0.531	0.774	0.478	0.95	0.993	1.1	1.03	0.286	0.287	0.289	0.274
EPLC-272H	–	1.05	0.877	0.68	0.704	0.457	0.3	0.309	0.225	0.29	0.397	0.407	0.355	0.218	0.222	0.279	0.245
H3255	0.26	0.28	0.248	0.182	0.218	0.923	0.762	0.87	0.593	0.784	0.631	0.812	0.694	0.788	0.648	0.577	0.624
HARA	0.836	0.638	0.727	0.777	0.796	–	0.56	0.529	0.526	0.752	0.575	0.664	0.704	0.0824	0.0995	0.111	0.092
HCC-15	1.01	0.819	0.877	0.835	0.865	0.782	0.861	0.769	0.825	0.721	0.651	0.652	0.713	0.449	0.53	0.531	0.398
HCC-44	1.09	0.948	1.02	1.08	1.02	1.11	1.05	1.03	1.09	0.988	0.969	1.01	0.981	1.27	0.92	0.861	0.725
